Measurements: US10669269B2, “Substituted N-(1H-indazol-4-yl)imidazo[1,2-a]pyridine-3-carboxamide compounds as type III receptor tyrosine kinase inhibitors” (ARRAY BIOPHARMA INC., priority 2010, dated 2020)
Structures can show the parent of a compound that is named as a salt.

Assays:
PDGFR beta [1] = molecular target: T1, PDGFR beta (Homo sapiens, UniProt P09619); experiment: Phospho PDGFR Cell Assay, sandwich ELISA (Example A); format: cell-based; details: averaged IC50, PDGFR beta phosphorylation in HS27 human fibroblast cell line, PDGF-BB stimulation 5 minutes
T1 construct: endogenous in cells; host or cells: HS27 human fibroblast cell line
Procedure: Compounds were screened for inhibition of PDGFR beta phosphorylation in the HS27 human fibroblast cell line. Cells were seeded into a 96 well tissue culture plate, then incubated overnight in a 37° C., 5% CO2 incubator. The following day, cells were treated for one hour with test compound dilutions. After stimulation with PDGF-BB ligand for 5 minutes, cells were lysed and added to a sandwich ELISA plate from R&D Systems to detect levels of phospho PDGFR beta. A standard 4-parameter logistic model was fit to the inhibitor dose response curves, with the IC50 being defined as the concentration of inhibitor giving 50 percent of control (POC).

c-KIT = molecular target: T2, c-KIT (Homo sapiens, UniProt P10721); experiment: c-KIT Cell-Based Assay (Example D); details: averaged IC50; phospho-c-KIT in M-07e cells stimulated with 150 ng/ml recombinant human SCF; read-out: cKIT Cell ELISA IC50
T2 construct: M-07e cells (human acute megakaryoblastic leukemia cell line) were serum-starved for 4 hours; endogenous in cells; host or cells: M-07e cells (human acute megakaryoblastic leukemia cell line)
Procedure, shortened: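 Phospho-c-KIT ELISA readout, calibrated with purified phospho-SCF R, gave IC50 (4-parameter fit, 50% of control). Before lysis, M-07e cells were starved 4 h, exposed 1 h to a 9-point 3-fold series (highest usually 5,000 nM), and stimulated with 150 ng/ml SCF for 4 min.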

cFMS = molecular target: T3, cFMS (Homo sapiens, UniProt P07333); experiment: cFMS Cell-Based Assay (Example C); details: averaged IC50; phospho-cFMS in THP-1 cells stimulated with 250 ng/mL recombinant human MCSF; read-out: cFMS Cell ELISA IC50
T3 construct: THP-1 cells (human acute monocytic leukemia cell line) were serum-starved for 4 hours; endogenous in cells; host or cells: THP-1 cells (human acute monocytic leukemia cell line)
Procedure, shortened: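 Phosphotyrosine on cFMS, captured from lysates and quantified by ELISA, reads receptor activation after 1 min of 250 ng/mL human MCSF. Beforehand, THP-1 cells were serum-starved for 4 h and exposed to compound for 1 h (9 points, 3-fold, typically up to 5,000 nM). IC50 from a 4-parameter logistic fit as 50 percent of control.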

PDGFR beta [2] = molecular target: T1, PDGFR beta; experiment: Phospho PDGFR LICOR Cell Assay (Example B); format: cell-based; details: averaged IC50; PDGFR beta phosphorylation in HS27 human fibroblast cell line, PDGF-BB stimulation 10 minutes, normalized to total ERK
Procedure, shortened: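 Read-out is in-cell phospho-PDGFRβ/total-ERK infrared immunofluorescence in HS27 fibroblasts. Cells got 1 h compound exposure before a 10 min PDGF-BB challenge. A 4-parameter logistic fit gave IC50 as the concentration yielding 50 percent of control.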

T1 sequence (P09619 33-1106): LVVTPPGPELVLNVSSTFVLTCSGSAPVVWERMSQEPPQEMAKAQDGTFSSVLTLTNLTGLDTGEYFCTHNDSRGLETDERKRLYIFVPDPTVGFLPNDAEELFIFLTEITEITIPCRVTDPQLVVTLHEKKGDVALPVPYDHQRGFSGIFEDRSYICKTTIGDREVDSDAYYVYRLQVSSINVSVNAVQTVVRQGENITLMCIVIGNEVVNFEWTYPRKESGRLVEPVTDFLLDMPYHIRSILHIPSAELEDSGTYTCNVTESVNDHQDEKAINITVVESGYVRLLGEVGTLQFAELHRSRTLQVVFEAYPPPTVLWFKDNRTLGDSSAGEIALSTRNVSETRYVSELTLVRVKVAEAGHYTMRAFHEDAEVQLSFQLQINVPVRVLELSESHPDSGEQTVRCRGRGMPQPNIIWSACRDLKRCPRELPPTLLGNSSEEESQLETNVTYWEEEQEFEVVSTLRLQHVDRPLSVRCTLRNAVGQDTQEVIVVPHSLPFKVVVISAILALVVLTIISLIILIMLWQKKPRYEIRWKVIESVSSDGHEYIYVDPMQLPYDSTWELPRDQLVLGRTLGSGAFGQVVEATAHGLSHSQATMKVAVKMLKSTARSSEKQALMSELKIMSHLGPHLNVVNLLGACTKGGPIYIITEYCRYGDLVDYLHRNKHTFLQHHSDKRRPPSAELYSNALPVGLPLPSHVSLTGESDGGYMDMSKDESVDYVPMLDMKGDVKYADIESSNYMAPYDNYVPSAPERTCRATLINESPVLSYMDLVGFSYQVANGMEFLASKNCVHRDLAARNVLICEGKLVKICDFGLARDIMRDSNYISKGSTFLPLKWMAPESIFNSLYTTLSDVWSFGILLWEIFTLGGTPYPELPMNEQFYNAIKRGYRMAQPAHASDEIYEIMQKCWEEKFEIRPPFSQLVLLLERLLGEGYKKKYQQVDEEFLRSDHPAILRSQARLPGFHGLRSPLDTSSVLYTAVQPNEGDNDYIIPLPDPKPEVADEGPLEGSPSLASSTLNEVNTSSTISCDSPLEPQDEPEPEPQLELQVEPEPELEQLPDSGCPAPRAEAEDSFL
T2 sequence (P10721 26-976): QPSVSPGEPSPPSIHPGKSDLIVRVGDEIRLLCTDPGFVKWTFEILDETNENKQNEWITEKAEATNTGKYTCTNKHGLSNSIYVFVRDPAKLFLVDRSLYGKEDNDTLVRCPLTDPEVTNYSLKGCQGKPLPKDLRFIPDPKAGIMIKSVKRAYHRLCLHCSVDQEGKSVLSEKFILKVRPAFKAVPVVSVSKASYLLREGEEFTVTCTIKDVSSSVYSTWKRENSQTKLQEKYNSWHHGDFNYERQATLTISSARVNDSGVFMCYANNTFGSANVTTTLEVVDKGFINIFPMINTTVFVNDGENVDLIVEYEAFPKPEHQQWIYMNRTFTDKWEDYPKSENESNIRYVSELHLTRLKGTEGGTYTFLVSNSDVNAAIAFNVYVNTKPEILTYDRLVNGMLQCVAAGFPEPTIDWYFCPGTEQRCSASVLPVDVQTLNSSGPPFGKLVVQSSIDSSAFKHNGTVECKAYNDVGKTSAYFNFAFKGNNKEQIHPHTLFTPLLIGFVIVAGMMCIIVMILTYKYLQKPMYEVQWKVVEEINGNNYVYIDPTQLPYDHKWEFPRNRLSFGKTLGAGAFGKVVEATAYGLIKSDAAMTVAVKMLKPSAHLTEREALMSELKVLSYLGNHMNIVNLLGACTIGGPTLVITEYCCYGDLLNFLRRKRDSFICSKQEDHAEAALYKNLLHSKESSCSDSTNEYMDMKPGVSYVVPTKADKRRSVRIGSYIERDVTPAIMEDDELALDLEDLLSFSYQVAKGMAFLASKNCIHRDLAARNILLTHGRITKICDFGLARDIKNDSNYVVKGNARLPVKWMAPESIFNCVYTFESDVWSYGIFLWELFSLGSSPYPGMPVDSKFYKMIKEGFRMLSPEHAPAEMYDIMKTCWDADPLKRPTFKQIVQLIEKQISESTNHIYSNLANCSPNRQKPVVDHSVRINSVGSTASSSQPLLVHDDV
T3 sequence (P07333 20-972): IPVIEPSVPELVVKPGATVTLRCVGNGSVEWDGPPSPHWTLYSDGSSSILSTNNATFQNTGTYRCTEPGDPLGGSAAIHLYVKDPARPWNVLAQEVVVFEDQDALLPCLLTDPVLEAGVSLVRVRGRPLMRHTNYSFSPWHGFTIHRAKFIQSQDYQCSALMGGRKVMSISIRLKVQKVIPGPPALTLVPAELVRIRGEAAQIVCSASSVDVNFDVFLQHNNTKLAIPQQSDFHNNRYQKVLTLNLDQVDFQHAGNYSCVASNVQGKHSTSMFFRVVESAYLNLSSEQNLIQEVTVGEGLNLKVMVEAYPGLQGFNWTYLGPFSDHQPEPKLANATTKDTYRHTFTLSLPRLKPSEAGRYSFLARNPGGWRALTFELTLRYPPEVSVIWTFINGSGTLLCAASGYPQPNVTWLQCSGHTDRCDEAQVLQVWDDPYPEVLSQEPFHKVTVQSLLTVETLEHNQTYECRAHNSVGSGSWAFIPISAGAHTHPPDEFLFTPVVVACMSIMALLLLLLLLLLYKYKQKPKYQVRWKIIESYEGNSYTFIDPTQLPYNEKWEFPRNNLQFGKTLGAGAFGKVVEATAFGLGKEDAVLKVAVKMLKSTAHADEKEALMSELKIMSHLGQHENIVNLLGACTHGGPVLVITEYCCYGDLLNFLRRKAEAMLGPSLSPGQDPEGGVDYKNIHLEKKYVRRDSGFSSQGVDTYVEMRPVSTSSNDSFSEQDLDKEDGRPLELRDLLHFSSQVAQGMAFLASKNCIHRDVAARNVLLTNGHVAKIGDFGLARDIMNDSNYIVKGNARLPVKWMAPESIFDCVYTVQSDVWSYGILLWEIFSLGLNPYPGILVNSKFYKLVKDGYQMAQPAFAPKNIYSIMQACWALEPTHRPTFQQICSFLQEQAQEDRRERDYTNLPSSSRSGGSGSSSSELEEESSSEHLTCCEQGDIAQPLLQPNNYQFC

SMILES | IC50 (PDGFR beta [1]) [µM] | IC50 (c-KIT) [µM] | IC50 (cFMS) [µM] | IC50 (PDGFR beta [2]) [µM]
Cc1nn(Cc2cccc(C(C)C)n2)c2cccc(NC(=O)c3cnc4cc(OCCN5CCOCC5)ccn34)c12 [Example 1, N-(1-((6-isopropylpyridin-2-yl)methyl)-3-methyl-1H-indazol-4-yl)-7-(2-morpholinoethoxy)imidazo[1,2-a]pyridine-3-carboxamide] | 0.0297 | 0.0533 | 0.0161 | 0.0129
CCN1CCN(CCOc2ccn3c(C(=O)Nc4cccc5c4c(C)nn5Cc4cccc(C(C)C)n4)cnc3c2)CC1 [Example 2, 7-(2-(4-Ethylpiperazin-1-yl)ethoxy)-N-(1-((6-isopropylpyridin-2-yl)methyl)-3-methyl-1H-indazol-4-yl)imidazo[1,2-a]pyridine-3-carboxamide] | 0.0094 | 0.0411 | 0.0277 | 0.0237
Cc1nn(Cc2cccc(C(C)C)n2)c2cccc(NC(=O)c3cnc4cc(OCCN5CC6(CNC6)C5)ccn34)c12 [Example 3, 7-(2-(2,6-diazaspiro[3.3]heptan-2-yl)ethoxy)-N-(1-((6-isopropylpyridin-2-yl)methyl)-3-methyl-1H-indazol-4-yl)imidazo[1,2-a]pyridine-3-carboxamide trihydrochloride] | 0.138 | 0.176 | 0.0704 | 0.01
Cc1nn(Cc2cccc(C(C)C)n2)c2cccc(NC(=O)c3cnc4cc(OCCN5CC6(CN(C)C6)C5)ccn34)c12 [Example 4, N-(1-((6-isopropylpyridin-2-yl)methyl)-3-methyl-1H-indazol-4-yl)-7-(2-(6-methyl-2,6-diazaspiro[3.3]heptan-2-yl)ethoxy)imidazo[1,2-a]pyridine-3-carboxamide] | 0.0279 | 0.0816 | 0.0294 | 0.0107
Cc1nn(Cc2cccc(C(C)C)n2)c2cccc(NC(=O)c3cnc4cc(OCCN5CC6(COC6)C5)ccn34)c12 [Example 5, 7-(2-(2-oxa-6-azaspiro[3.3]heptan-6-yl)ethoxy)-N-(1-((6-isopropylpyridin-2-yl)methyl)-3-methyl-1H-indazol-4-yl)imidazo[1,2-a]pyridine-3-carboxamide] | 0.0205 | 0.0828 | 0.0279 | 0.022
Cc1nn(Cc2cccc(C(C)C)n2)c2cccc(NC(=O)c3cnc4cc(OCCN5CCN(C(C)C)CC5)ccn34)c12 [Example 6, 7-(2-(4-Isopropylpiperazin-1-yl)ethoxy)-N-(1-((6-isopropylpyridin-2-yl)methyl)-3-methyl-1H-indazol-4-yl)imidazo[1,2-a]pyridine-3-carboxamide] | 0.0335 | 0.057 | 0.0409 | 0.0063
Cc1nn(Cc2csc(C(C)C)n2)c2cccc(NC(=O)c3cnc4cc(OCCN5CC6(COC6)C5)ccn34)c12 [Example 14, 7-(2-(2-oxa-6-azaspiro[3.3]heptan-6-yl)ethoxy)-N-(1-((2-isopropylthiazol-4-yl)methyl)-3-methyl-1H-indazol-4-yl)imidazo[1,2-a]pyridine-3-carboxamide] | 0.0377 | 0.0964 | 0.0206 | 0.0366
Cc1nn(Cc2cccc(C3CC3)n2)c2cccc(NC(=O)c3cnc4cc(OCCN5CCN(C(C)C)CC5)ccn34)c12 [Example 16, N-(1-((6-cyclopropylpyridin-2-yl)methyl)-3-methyl-1H-indazol-4-yl)-7-(2-(4-isopropylpiperazin-1-yl)ethoxy)imidazo[1,2-a]pyridine-3-carboxamide] | 0.0281 | 0.0348 | 0.0139 | 0.103
CCN1CCN(CCOc2ccn3c(C(=O)Nc4cccc5c4c(C)nn5Cc4cccc(C5CC5)n4)cnc3c2)CC1 [Example 17, N-(1-((6-cyclopropylpyridin-2-yl)methyl)-3-methyl-1H-indazol-4-yl)-7-(2-(4-ethylpiperazin-1-yl)ethoxy)imidazo[1,2-a]pyridine-3-carboxamide] | 0.085 | 0.0542 | 0.011 | 0.313
Cc1cc(C)nc(Cn2nc(C)c3c(NC(=O)c4cnc5cc(OCCN6CCN(C)[C@@H](C)C6)ccn45)cccc32)c1 [Example 34, (S)-7-(2-(3,4-dimethylpiperazin-1-yl)ethoxy)-N-(1-((4,6-dimethylpyridin-2-yl)methyl)-3-methyl-1H-indazol-4-yl)imidazo[1,2-a]pyridine-3-carboxamide] | ≥ 1 |  |  | 1.67
Cc1cccc(CCn2nc(C)c3c(NC(=O)c4cnc5cc(OCCN6CCN(C)[C@@H](C)C6)ccn45)cccc32)n1 [Example 42, (S)-7-(2-(3,4-dimethylpiperazin-1-yl)ethoxy)-N-(3-methyl-1-(2-(6-methylpyridin-2-yl)ethyl)-1H-indazol-4-yl)imidazo[1,2-a]pyridine-3-carboxamide] | ≥ 1 |  |  | 4.8
CC(=O)c1ccn2c(C(=O)Nc3cccc4c3c(C)nn4Cc3cccc(C)n3)cnc2c1 [Example 79, 7-acetyl-N-(3-methyl-1-((6-methylpyridin-2-yl)methyl)-1H-indazol-4-yl)imidazo[1,2-a]pyridine-3-carboxamide] | ≥ 1 | 4.32 | 0.0569 | 
COCCOc1ccn2c(C(=O)Nc3cccc4c3c(C)nn4CC3CCCCO3)cnc2c1 (stereo not shown) [Example 82, 7-(2-methoxyethoxy)-N-(3-methyl-1-((tetrahydro-2H-pyran-2-yl)methyl)-1H-indazol-4-yl)imidazo[1,2-a]pyridine-3-carboxamide] | 0.309 | 0.458 | 0.122 | 
COCCOc1ccn2c(C(=O)Nc3cccc4c3c(C)nn4CC3CCOCC3)cnc2c1 [Example 83, 7-(2-methoxyethoxy)-N-(3-methyl-1-((tetrahydro-2H-pyran-4-yl)methyl)-1H-indazol-4-yl)imidazo[1,2-a]pyridine-3-carboxamide] | ≥ 1 | 5 | 0.538 | 
COCCOc1ccn2c(C(=O)Nc3cccc4c3c(C)nn4CC3CC3)cnc2c1 [Example 84, N-(1-(cyclopropylmethyl)-3-methyl-1H-indazol-4-yl)-7-(2-methoxyethoxy)imidazo[1,2-a]pyridine-3-carboxamide] | ≥ 1 | 5 | 0.734 | 
O=C(Nc1cccc2c1cnn2Cc1ccccc1)c1cnc2cc(O)ccn12 [Example 92, N-(1-benzyl-1H-indazol-4-yl)-7-hydroxyimidazo[1,2-a]pyridine-3-carboxamide] | 0.137 | 0.205 | 0.026 | 
COCCOc1ccn2c(C(=O)Nc3cccc4c3cnn4C[C@@H]3CCCN(C(=O)OC(C)(C)C)C3)cnc2c1 [Example 117, (R)-tert-butyl 3-((4-(7-(2-methoxyethoxy)imidazo[1,2-a]pyridine-3-carboxamido)-1H-indazol-1-yl)methyl)piperidine-1-carboxylate] | 0.0548 | 0.125 | 0.168 | 
COCCOc1ccn2c(C(=O)Nc3cccc4c3cnn4CC3CN(C(=O)OC(C)(C)C)CCO3)cnc2c1 (stereo not shown) [Example 123, tert-butyl 2-((4-(7-(2-methoxyethoxy)imidazo[1,2-a]pyridine-3-carboxamido)-1H-indazol-1-yl)methyl)morpholine-4-carboxylate] | 0.162 | 0.255 | 0.378 | 
O=C(Nc1cccc2c1cnn2Cc1ccccc1)c1cnc2ccc(Br)cn12 [Example 155, N-(1-benzyl-1H-indazol-4-yl)-6-bromoimidazo[1,2-a]pyridine-3-carboxamide] | 0.282 | 0.0762 | 0.114 | 
O=C(Nc1cccc2c1cnn2Cc1ccccc1)c1cnc2cc(C(O)CO)ccn12 (stereo not shown) [Example 157, N-(1-benzyl-1H-indazol-4-yl)-7-(1,2-dihydroxyethyl)imidazo[1,2-a]pyridine-3-carboxamide] | 0.275 | 0.233 | 0.105 | 
O=C(Nc1cccc2c1cnn2Cc1ccccc1)c1cnc2cc(Br)ccn12 [Example 161, N-(1-benzyl-1H-indazol-4-yl)-7-bromoimidazo[1,2-a]pyridine-3-carboxamide] | 0.236 | 0.0431 | 0.0589 | 
